# Experimental data from US7332482B2, “Method for treating benign prostatic hyperplasia” (BioXell S.p.A., priority 2003, dated 2008).
# “Also recorded” adds a separate entry of the source.
# Legend:
# rat ventral prostate = assay: Clusterin expression (Northern, immunohistochemistry) and TUNEL in rat ventral prostate; assay type: in vivo
# Method: Total RNA was extracted using RNAFast from Molecular System (San Diego, Calif.). Blotting, labelling, hybridization conditions and probes (rat clusterin 1.5 Kb full-length cDNA and GAPDH 1.2 Kb full-length cDNA) were performed according to the reported procedures (Bettuzzi et al, Biochemical Journal, (1989), 257, p 293-296 and Marinelli et al, Biochemistry and Cell Biology, (1994), 72, p 515-521). Quantitation of the autoradiograms was obtained by densitometric scanning using an LKB Ultrascan XL densitometer.
# All the cryostatic sections obtained from controls and treated rats were processed in parallel as previously described (Astancolle et al, Journal of Endocrinology, (2000), 167, p 197-204). For every experimental condition, 3 alternate sections from 3 different rat prostates were examined. […] Counterstaining was performed with haematoxylin, and cover slips were mounted with Eukitt (O. Kindler GmbH & Co, Germany). Digital high-magnification colour images were acquired by a CCD camera through the microscope.
# DNA fragmentation in prostate cryostatic sections, assessed by terminal deoxynucleotidyl transferase (TdT)-mediated dUTP nick end-labelling (TUNEL), was performed using the In Situ Cell Death Detection Kit (POD, Roche) as recommended by the manufacturer. TUNEL positive apoptotic nuclei were documented by digital high-magnification colour images acquired by a CCD camera through the microscope. Counterstaining was performed with eosin, and cover slips were mounted with Eukitt (O Kindler GmbH & Co, Germany).
# AR = molecular target: T1, AR (Homo sapiens, UniProt P10275); assay: [3H]R1881 binding assay on cytosol fractions of BPH fragments; design: from tissue; host or cells: human BPH prostatic tissue, cytosol fraction
# T1 sequence (P10275 1-920): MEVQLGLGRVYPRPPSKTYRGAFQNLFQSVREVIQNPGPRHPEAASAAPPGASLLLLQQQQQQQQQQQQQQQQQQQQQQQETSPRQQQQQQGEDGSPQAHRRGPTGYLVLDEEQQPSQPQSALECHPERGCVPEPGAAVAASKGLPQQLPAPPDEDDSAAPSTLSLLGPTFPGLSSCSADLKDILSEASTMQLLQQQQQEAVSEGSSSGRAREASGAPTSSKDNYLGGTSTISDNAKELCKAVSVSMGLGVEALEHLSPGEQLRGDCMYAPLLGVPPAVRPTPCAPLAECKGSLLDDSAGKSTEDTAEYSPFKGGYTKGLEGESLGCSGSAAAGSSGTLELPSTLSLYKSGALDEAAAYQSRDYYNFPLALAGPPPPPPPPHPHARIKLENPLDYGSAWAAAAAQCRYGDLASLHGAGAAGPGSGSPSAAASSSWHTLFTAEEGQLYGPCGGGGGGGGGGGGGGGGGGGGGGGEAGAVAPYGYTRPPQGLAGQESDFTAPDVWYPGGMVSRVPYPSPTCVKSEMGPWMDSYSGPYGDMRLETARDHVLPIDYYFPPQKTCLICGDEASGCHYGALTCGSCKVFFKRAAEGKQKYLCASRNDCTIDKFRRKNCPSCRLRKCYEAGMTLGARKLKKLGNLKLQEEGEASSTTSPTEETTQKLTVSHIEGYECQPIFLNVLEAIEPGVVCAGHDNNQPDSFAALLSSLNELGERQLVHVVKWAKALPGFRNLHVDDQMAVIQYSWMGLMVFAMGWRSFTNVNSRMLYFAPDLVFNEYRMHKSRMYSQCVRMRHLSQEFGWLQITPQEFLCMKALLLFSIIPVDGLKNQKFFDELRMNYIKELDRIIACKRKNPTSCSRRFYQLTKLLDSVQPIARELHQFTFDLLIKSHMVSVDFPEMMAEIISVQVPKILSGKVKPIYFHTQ
# Method: Prostatic tissues for binding assay were obtained from patients who underwent suprapubic adenomectomy for BPH. No pharmacological treatment was performed in the 3 months preceding surgery. After surgery, the tissues were immediately placed in liquid nitrogen and stored at −80° C. until processing.
# Protein content was determined by the known method of Bradford, using BSA as a standard.
# [1] = system: prostate volume in patients with BPH; assay: Randomised double blind placebo controlled study in patients with BPH; assay type: in vivo, human
# Method: A randomised double blind placebo controlled parallel group study was performed to determine the effect of Compound A (1-alpha-fluoro-25-hydroxy-16,23E-diene-26,27-bishomo-20-epi-cholecalciferol) in patients with BPH.
# The principal inclusion criterion was that male patients be diagnosed with BPH and have prostate volume >40 ml as determined by transrectal ultrasound (TRUS).
# Statistical methods: primary efficacy analyses were planned on Per-Protocol (PP) Population and, as support, the same analyses were to be done on Intent-to-treat population. Patients evaluatable for the Per-Protocol analysis were all randomized patients compliant to protocol criteria who completed the whole course of study without major protocol violations and have valid assessments of prostate volume. Patients valid for intent-to-treat (ITT) population were all randomized patients who received at least one dose of trial medication and for whom the prostate volume at baseline and at 12 weeks visit were available.
# All patients randomized who took at least one dose of study drug were evaluated for safety analysis.
# The primary efficacy variable was the percentage change of prostate volume, measured by centralized MRI axial scanning. An ANOVA model was used for the analysis, with treatment and center as fixed effects.
# Study participants received 150 μg capsule (as per Example 4A with drug omitted in the case of placebo) once daily in the morning. The treatment period was 12 weeks.
structure (smiles),measurement,setting,value
"C=C1/C(=C\C=C2/CCC[C@]3(C)C([C@@H](C)C/C=C/C(O)(CC)CC)=CC[C@@H]23)C[C@@H](O)C[C@@H]1F [Compound A, 1-alpha-fluoro-25-hydroxy-16,23E-diene-26,27-bishomo-20-epi-cholecalciferol]",DNA fragmentation / apoptosis in ventral prostate (TUNEL),"rat ventral prostate; castrated T-supplemented rats, 100 and 300 μg/Kg, 9 administrations",induced an evident nuclear fragmentation in epithelial and stromal cells; also recorded: induced massive apoptosis in the majority of epithelial and stromal cells
same,"clusterin staining and apoptosis in prostate (immunohistochemistry, TUNEL)","rat ventral prostate; intact adult rats, Compound A 10, 30, 100 μg/Kg, finasteride 40 mg/Kg",induced clusterin expression; also recorded: dose-dependently stained for clusterin
same,clusterin mRNA expression in ventral prostate (Northern),"rat ventral prostate; intact rats, one month, 30 and 100 μg/Kg",induced a sustained increase
same,clusterin mRNA expression in ventral prostate (Northern),"rat ventral prostate; orchidectomized T-supplemented rats, Compound A 300 and 100 μg/Kg, F 40 mg/Kg",partially blunted the T-induced down-regulation of clusterin gene expression
same,Kd,AR,> 100 µM
same,competition for [3H]-R1881 binding,"AR; human BPH homogenates, 10^−10-10^−4 M",did not compete
same,severe adverse events,[1]; 12 weeks,no severe adverse event was reported
same,proportion of responders,[1]; ITT population,28.8%
same,reduction of prostate volume vs placebo,"[1]; ITT population, axial scanning",more effective than placebo
same,mean difference of prostate volume vs baseline in non responder patients,[1]; PP population,3.93±0.8
same,mean difference of prostate volume vs baseline in unchanged patients,[1]; PP population,−0.35±2.3
same,mean reduction of prostate volume vs baseline in responder patients,[1]; PP population,−6.88±2.5
same,"percentage change of prostate volume, paraxial acquisition",[1]; PP population,−1.30±6.9%
same,"percentage change of prostate volume, transitional scanning",[1]; PP population,−0.22±9.6%
same,proportion of patients not responder,[1]; PP population,7.5%
same,proportion of responders,[1]; PP population,27.5%
same,proportion of unchanged patients,[1]; PP population,65%
same,"percentage change in prostate volume, axial scanning","[1]; PP population, 150 μg once daily, 12 weeks, MRI",−1.89±5.2%
same,"estimate of difference between treatments (Compound A minus placebo), percentage change in prostate volume","[1]; PP population, axial scanning, 95% confidence limit −9.54 and −4.94",−7.24
same,number of patients with adverse events related to treatment,[1]; safety population,3
same,patients with adverse events related to treatment,[1]; safety population,5.26%
same,number of patients with at least one adverse event,"[1]; safety population, 57 randomised",17
same,calciuria values over the course of the study,[1]; vs Placebo group,did not differ significantly
